Activity calls are given as the source filed them. No cut-off for these calls is given here.
target: T1, Tyrosine-protein phosphatase non-receptor type 1 (Homo sapiens, UniProt P18031); assay: Inhibition of PTP1B; settings: not given
T1 sequence (P18031 whole entry): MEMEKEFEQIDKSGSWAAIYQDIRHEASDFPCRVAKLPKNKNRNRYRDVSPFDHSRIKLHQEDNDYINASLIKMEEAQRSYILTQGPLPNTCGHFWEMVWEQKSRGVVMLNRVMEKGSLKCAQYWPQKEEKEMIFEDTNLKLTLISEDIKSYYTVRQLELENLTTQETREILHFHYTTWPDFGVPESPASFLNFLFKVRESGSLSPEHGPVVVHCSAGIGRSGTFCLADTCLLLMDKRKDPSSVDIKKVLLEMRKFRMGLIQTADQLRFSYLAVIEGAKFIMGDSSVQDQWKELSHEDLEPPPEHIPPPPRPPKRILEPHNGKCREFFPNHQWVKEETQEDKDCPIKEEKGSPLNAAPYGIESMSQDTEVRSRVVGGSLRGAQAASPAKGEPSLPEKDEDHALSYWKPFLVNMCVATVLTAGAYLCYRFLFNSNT

SMILES | IC50 [µM]
Oc1ccc(/C=C/c2cc(O)cc(O)c2)cc1 [RESVERATROL] | > 1000
O=C(O)c1ccc(/C=C/c2ccc(O)c(C(=O)O)c2)cc1O | 32
O=C(O)c1cc(/C=C/c2ccccc2)cc(Br)c1O | 30
O=C(O)c1cc(/C=C/c2ccccc2)ccc1O | 34
O=C(O)c1cc(/C=C/c2ccccc2)cc(-c2ccccc2)c1O | 13
COc1cc(/C=C/c2cc(C(=O)O)c(O)c(-c3ccco3)c2)ccc1/C=C/c1cc(C(=O)O)c(O)c(-c2ccco2)c1 | 4
O=C(O)c1cc(/C=C/c2ccc(/C=C/c3cc(C(=O)O)c(O)c(-c4ccco4)c3)cc2)cc(-c2ccco2)c1O | 0.53
O=C(O)c1cc(/C=C/c2ccc(/C=C/c3cc(Br)c(O)c(C(=O)O)c3)cc2)cc(Br)c1O | 3
COc1c(C(=O)O)cc(/C=C/c2ccc(C(=O)O)c(O)c2)cc1-c1ccco1 | 194
O=C(O)c1cc(/C=C/c2ccc(/C=C/c3ccc(O)c(C(=O)O)c3)cc2)ccc1O | 5
O=C(O)c1ccc(/C=C/c2cc(Br)c(O)c(C(=O)O)c2)cc1O | 64
O=C(O)c1cc(/C=C/c2cc(C(=O)O)c(O)c(-c3ccccc3)c2)ccc1O | 125
COc1cc(/C=C/c2cc(Br)c(O)c(C(=O)O)c2)ccc1/C=C/c1cc(Br)c(O)c(C(=O)O)c1 | 6

target: T2, Tyrosine-protein phosphatase non-receptor type 2 (Homo sapiens, UniProt P17706); assay: Inhibition of TC-PTP; settings: not given
T2 sequence (P17706 whole entry): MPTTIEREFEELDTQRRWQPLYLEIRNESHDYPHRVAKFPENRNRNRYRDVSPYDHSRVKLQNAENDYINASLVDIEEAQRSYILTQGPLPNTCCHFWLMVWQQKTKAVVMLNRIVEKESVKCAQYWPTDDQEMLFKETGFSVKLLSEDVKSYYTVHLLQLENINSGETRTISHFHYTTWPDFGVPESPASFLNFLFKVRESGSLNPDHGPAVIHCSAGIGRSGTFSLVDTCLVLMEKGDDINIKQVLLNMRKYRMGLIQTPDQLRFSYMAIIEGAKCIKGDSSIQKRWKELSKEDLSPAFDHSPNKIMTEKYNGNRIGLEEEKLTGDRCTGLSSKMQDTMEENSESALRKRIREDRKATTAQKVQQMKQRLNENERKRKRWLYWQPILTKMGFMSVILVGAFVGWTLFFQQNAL

SMILES | IC50 [µM]
O=C(O)c1ccc(/C=C/c2ccc(O)c(C(=O)O)c2)cc1O | 567
O=C(O)c1cc(/C=C/c2ccccc2)cc(Br)c1O | 173
O=C(O)c1cc(/C=C/c2ccccc2)ccc1O | 234
O=C(O)c1cc(/C=C/c2ccccc2)cc(-c2ccccc2)c1O | 173
COc1cc(/C=C/c2cc(C(=O)O)c(O)c(-c3ccco3)c2)ccc1/C=C/c1cc(C(=O)O)c(O)c(-c2ccco2)c1 | 11
O=C(O)c1cc(/C=C/c2ccc(/C=C/c3cc(C(=O)O)c(O)c(-c4ccco4)c3)cc2)cc(-c2ccco2)c1O | 8
O=C(O)c1cc(/C=C/c2ccc(/C=C/c3cc(Br)c(O)c(C(=O)O)c3)cc2)cc(Br)c1O | 37
O=C(O)c1cc(/C=C/c2ccc(/C=C/c3ccc(O)c(C(=O)O)c3)cc2)ccc1O | 27
COc1cc(/C=C/c2cc(Br)c(O)c(C(=O)O)c2)ccc1/C=C/c1cc(Br)c(O)c(C(=O)O)c1 | 32

test system: not listed separately; assay: Inhibition of PTP LAR-D1; settings: not given

SMILES | IC50 [µM]
O=C(O)c1ccc(/C=C/c2ccc(O)c(C(=O)O)c2)cc1O | > 2000
O=C(O)c1cc(-c2ccccc2)cc(Cc2cc(-c3ccccc3)cc(C(=O)O)c2O)c1O | > 2000
O=C(O)c1cc(/C=C/c2ccccc2)cc(Br)c1O | > 1000
O=C(O)c1cc(/C=C/c2ccccc2)ccc1O | > 2000
O=C(O)c1cc(/C=C/c2ccccc2)cc(-c2ccccc2)c1O | > 1000
COc1cc(/C=C/c2cc(C(=O)O)c(O)c(-c3ccco3)c2)ccc1/C=C/c1cc(C(=O)O)c(O)c(-c2ccco2)c1 | 162
O=C(O)c1cc(/C=C/c2ccc(/C=C/c3cc(C(=O)O)c(O)c(-c4ccco4)c3)cc2)cc(-c2ccco2)c1O | > 200
O=C(O)c1cc(/C=C/c2ccc(/C=C/c3cc(Br)c(O)c(C(=O)O)c3)cc2)cc(Br)c1O | > 300
O=C(O)c1cc(/C=C/c2ccc(/C=C/c3ccc(O)c(C(=O)O)c3)cc2)ccc1O | 413
O=C(O)c1cc(Cc2cc(C(=O)O)c(O)c(-c3ccccc3)c2)cc(-c2ccccc2)c1O | > 2000
COc1cc(/C=C/c2cc(Br)c(O)c(C(=O)O)c2)ccc1/C=C/c1cc(Br)c(O)c(C(=O)O)c1 | 420

target: Tyrosine-protein phosphatase non-receptor type 6 (Homo sapiens, UniProt P29350); assay: Inhibition of PTP SHP1; settings: not given
Sequence (P29350 whole entry): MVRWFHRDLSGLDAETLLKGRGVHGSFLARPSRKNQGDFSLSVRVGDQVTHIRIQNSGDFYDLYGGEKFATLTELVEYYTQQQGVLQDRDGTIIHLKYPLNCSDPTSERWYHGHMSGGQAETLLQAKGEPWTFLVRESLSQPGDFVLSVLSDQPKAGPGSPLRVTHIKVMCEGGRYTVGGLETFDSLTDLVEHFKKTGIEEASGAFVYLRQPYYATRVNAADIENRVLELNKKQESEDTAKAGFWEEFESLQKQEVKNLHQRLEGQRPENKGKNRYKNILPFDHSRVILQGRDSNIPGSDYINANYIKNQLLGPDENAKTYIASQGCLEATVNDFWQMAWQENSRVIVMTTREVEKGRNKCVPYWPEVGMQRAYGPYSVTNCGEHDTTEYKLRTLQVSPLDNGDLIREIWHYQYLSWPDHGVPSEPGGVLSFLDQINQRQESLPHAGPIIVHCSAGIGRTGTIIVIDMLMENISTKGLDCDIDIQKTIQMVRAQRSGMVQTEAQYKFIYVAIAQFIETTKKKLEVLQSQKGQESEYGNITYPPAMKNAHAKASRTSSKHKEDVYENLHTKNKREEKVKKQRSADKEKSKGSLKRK

SMILES | IC50 [µM]
O=C(O)c1ccc(/C=C/c2ccc(O)c(C(=O)O)c2)cc1O | 231
O=C(O)c1cc(/C=C/c2ccccc2)cc(Br)c1O | 140
O=C(O)c1cc(/C=C/c2ccccc2)ccc1O | 126
O=C(O)c1cc(/C=C/c2ccccc2)cc(-c2ccccc2)c1O | 78
COc1cc(/C=C/c2cc(C(=O)O)c(O)c(-c3ccco3)c2)ccc1/C=C/c1cc(C(=O)O)c(O)c(-c2ccco2)c1 | 6
O=C(O)c1cc(/C=C/c2ccc(/C=C/c3cc(C(=O)O)c(O)c(-c4ccco4)c3)cc2)cc(-c2ccco2)c1O | 6
O=C(O)c1cc(/C=C/c2ccc(/C=C/c3cc(Br)c(O)c(C(=O)O)c3)cc2)cc(Br)c1O | 15
O=C(O)c1cc(/C=C/c2ccc(/C=C/c3ccc(O)c(C(=O)O)c3)cc2)ccc1O | 19
COc1cc(/C=C/c2cc(Br)c(O)c(C(=O)O)c2)ccc1/C=C/c1cc(Br)c(O)c(C(=O)O)c1 | 10

test system: not listed separately; assay: Inhibition of PTP YOP; settings: not given

SMILES | IC50 [µM]
O=C(O)c1ccc(/C=C/c2ccc(O)c(C(=O)O)c2)cc1O | 175
O=C(O)c1cc(/C=C/c2ccccc2)cc(Br)c1O | 91
O=C(O)c1cc(/C=C/c2ccccc2)ccc1O | 61
O=C(O)c1cc(/C=C/c2ccccc2)cc(-c2ccccc2)c1O | 44
COc1cc(/C=C/c2cc(C(=O)O)c(O)c(-c3ccco3)c2)ccc1/C=C/c1cc(C(=O)O)c(O)c(-c2ccco2)c1 | 5
O=C(O)c1cc(/C=C/c2ccc(/C=C/c3cc(C(=O)O)c(O)c(-c4ccco4)c3)cc2)cc(-c2ccco2)c1O | 5
O=C(O)c1cc(/C=C/c2ccc(/C=C/c3cc(Br)c(O)c(C(=O)O)c3)cc2)cc(Br)c1O | 10
O=C(O)c1cc(/C=C/c2ccc(/C=C/c3ccc(O)c(C(=O)O)c3)cc2)ccc1O | 13
COc1cc(/C=C/c2cc(Br)c(O)c(C(=O)O)c2)ccc1/C=C/c1cc(Br)c(O)c(C(=O)O)c1 | 12

test system: not listed separately; assay: Inhibition of YPTP1; settings: not given

SMILES | IC50 [µM]
O=C(O)c1ccc(/C=C/c2ccc(O)c(C(=O)O)c2)cc1O | 370
O=C(O)c1cc(-c2ccccc2)cc(Cc2cc(-c3ccccc3)cc(C(=O)O)c2O)c1O | 86
O=C(O)c1cc(/C=C/c2ccccc2)cc(Br)c1O | 153
O=C(O)c1cc(/C=C/c2ccccc2)ccc1O | 114
O=C(O)c1cc(/C=C/c2ccccc2)cc(-c2ccccc2)c1O | 59
COc1cc(/C=C/c2cc(C(=O)O)c(O)c(-c3ccco3)c2)ccc1/C=C/c1cc(C(=O)O)c(O)c(-c2ccco2)c1 | 10
O=C(O)c1cc(/C=C/c2ccc(/C=C/c3cc(C(=O)O)c(O)c(-c4ccco4)c3)cc2)cc(-c2ccco2)c1O | 7
O=C(O)c1cc(/C=C/c2ccc(/C=C/c3cc(Br)c(O)c(C(=O)O)c3)cc2)cc(Br)c1O | 13
O=C(O)c1cc(/C=C/c2ccc(/C=C/c3ccc(O)c(C(=O)O)c3)cc2)ccc1O | 20
O=C(O)c1cc(Cc2cc(C(=O)O)c(O)c(-c3ccccc3)c2)cc(-c2ccccc2)c1O | 234
COc1cc(/C=C/c2cc(Br)c(O)c(C(=O)O)c2)ccc1/C=C/c1cc(Br)c(O)c(C(=O)O)c1 | 21

test system: Mus musculus; assay: Toxicity in liver of high fat diet fed C57BL/6J Jms Slc mouse at 160 mg/day/kg for 4 weeks administered with diet; assay type: organism-based; settings: in vivo, po, 672 h

SMILES | Activity
O=C(O)c1cc(/C=C/c2ccc(/C=C/c3cc(Br)c(O)c(C(=O)O)c3)cc2)cc(Br)c1O | Non-toxic

test system: Mus musculus; assay: Toxicity in kidney of high fat diet fed C57BL/6J Jms Slc mouse at 160 mg/day/kg for 4 weeks administered with diet; assay type: organism-based; settings: in vivo, po, 672 h

SMILES | Activity
O=C(O)c1cc(/C=C/c2ccc(/C=C/c3cc(Br)c(O)c(C(=O)O)c3)cc2)cc(Br)c1O | Non-toxic

test system: Mus musculus; assay: Toxicity in lungs of high fat diet fed mouse C57BL/6J Jms Slc at 160 mg/day/kg for 4 weeks administered with diet; assay type: organism-based, Lung; settings: in vivo, po, 672 h

SMILES | Activity
O=C(O)c1cc(/C=C/c2ccc(/C=C/c3cc(Br)c(O)c(C(=O)O)c3)cc2)cc(Br)c1O | Non-toxic

test system: Mus musculus; assay: Reduction in blood glucose level in high fat diet fed C57BL/6J Jms Slc mouse at 160 mg/day/kg administered with diet measured after 27 days; assay type: functional, organism-based; settings: not given

SMILES | Activity
O=C(O)c1cc(/C=C/c2ccc(/C=C/c3cc(Br)c(O)c(C(=O)O)c3)cc2)cc(Br)c1O | Active

test system: Mus musculus; assay: Normalization of blood glucose level in high fat diet fed C57BL/6J Jms Slc mouse at 160 mg/day/kg administered with diet; assay type: functional, organism-based; settings: not given

SMILES | Activity
O=C(O)c1cc(/C=C/c2ccc(/C=C/c3cc(Br)c(O)c(C(=O)O)c3)cc2)cc(Br)c1O | Active

Reference: ChEMBL document CHEMBL1151791, “Derivatives of 1,4-bis(3-hydroxycarbonyl-4-hydroxyl)styrylbenzene as PTP1B inhibitors with hypoglycemic activity” (Bioorg Med Chem, 2008)
